Measured values from patent US11453657B2 (GlaxoSmithKline Intellectual Property Development Limited, priority 2018, dated 2022).
pIC50: −log10 of the molar value. Counter-ions that a name gives are not always drawn. Like-named read-outs stand apart in the source and are kept apart here. Values belong to the compound of their own block, whether it stands above or below them.

Test system: P. falciparum infected erythrocytes
Assay: P. falciparum growth inhibition assay ([3H]hypoxanthine incorporation)
Type: cell-based, Plasmodium falciparum
Method: P. falciparum Growth Inhibition Assay.
The sensitivity of P. falciparum infected erythrocytes to the compound was determined in duplicate using the [3H]hypoxanthine incorporation method with an inoculum of 0.5% parasitemia (ring stage) and 2% hematocrit. The parasites were grown in RPMI 1640, 25 mM HEPES and supplemented with 5% Albumax. Plates are incubated at 37° C., 5% CO2, 5% O2, 90% N2. After 24 h of incubation, [3H]hypoxanthine is added and plates are incubated for another 24 h. After that period, plates are harvested on a glass fiber filter using a TOMTEC Cell harvester 96. Filters are dried and melt on scintillator sheets and the bound radioactivity is quantified by use of a Wallac Microbeta Trilux (Model 1450 LS—Perkin Elmer). IC50s are determined using Grafit 7 program (Grafit program; Erithacus Software, Horley, Surrey, United Kingdom).
Each example compound was tested generally in accordance with the above-mentioned assay and the PfIC50 value for each compound is reported in the Table below and according to the following: […]

[1] = Plasmodium falciparum, Erythrocyte, [3H]hypoxanthine incorporation, 0.5% parasitemia, 2% hematocrit, 48 h, read-out: PfIC50 Media
[2] = Plasmodium falciparum, Erythrocyte, read-out: average PfIC50
[3] = [3H]hypoxanthine incorporation, 0.5% parasitemia, 2% hematocrit, 48 h, read-out: PfIC50 Media

SMILES: O=C(c1ccc(OC[C@H](F)Cn2ncnn2)cc1)N1CC[C@H](c2ccc(F)cc2)C1 [Example 11]
pIC50 [1]: > 7.00
pIC50 [2]: ≥ 7.30

SMILES: N[C@@H](COc1ccc(C(=O)N2CC[C@@H](c3ccc(F)cc3)C2)cc1)Cn1ncnn1 [Example 50, (4-((R)-2-amino-3-(2H-tetrazol-2-yl)propoxy)phenyl)((S)-3-(4-fluorophenyl)pyrrolidin-1-yl)methanone, Hydrochloride]
pIC50 [1]: 6.30 to 7.00
pIC50 (Plasmodium falciparum, Erythrocyte, hydrochloride salt, read-out: average PfIC50 of the hydrochloride salt): 6.66

SMILES: N[C@@H](COc1ccc(C(=O)N2CC[C@H](c3ccc(F)cc3)C2)cc1)Cn1cccn1 [Example 55, (4-((R)-2-amino-3-(1H-pyrazol-1-yl)propoxy)phenyl)((R)-3-(4-fluorophenyl)pyrrolidin-1-yl)methanone, Hydrochloride]
pIC50 [1]: 6.30 to 7.00

SMILES: O=C(c1ccc(OC[C@H](O)Cn2cccn2)cc1)N1CC[C@H](c2ccc(F)cc2)C1 [Example 19, ((R)-3-(4-fluorophenyl)pyrrolidin-1-yl)(4-((R)-2-hydroxy-3-(1H-pyrazol-1-yl)propoxy)phenyl)methanone]
pIC50 [1]: > 7.00
pIC50 [2]: ≥ 7.30

SMILES: O=C(c1ccc(OC[C@H](O)Cn2nccn2)cc1)N1CC[C@H](c2ccc(Cl)cc2)C1 [Example 31, ((R)-3-(4-chlorophenyl)pyrrolidin-1-yl)(4-((R)-2-hydroxy-3-(2H-1,2,3-triazol-2-yl)propoxy)phenyl)methanone]
pIC50 [1]: > 7.00
pIC50 [2]: ≥ 7.30

SMILES: N[C@@H](COc1ccc(C(=O)N2CC[C@H](c3ccc(F)cc3)C2)cc1)Cn1cnnn1 [Example 46, (4-((R)-2-amino-3-(1H-tetrazol-1-yl)propoxy)phenyl)((R)-3-(4-fluorophenyl)pyrrolidin-1-yl)methanone]
pIC50 [1]: > 7.00

SMILES: O=C(c1ccc(OC[C@H](O)Cn2cncn2)cc1)N1CC[C@H](c2ccc(Cl)cc2)C1 [Example 30, ((R)-3-(4-chlorophenyl)pyrrolidin-1-yl) (4-((R)-2-hydroxy-3-(1H-1,2,4-triazol-1-yl)propoxy)phenyl)methanone]
pIC50 [1]: > 7.00

SMILES: O=C(c1ccc(OC[C@H](O)Cn2ncnn2)cc1)N1CC[C@H](c2ccc(F)cc2)C1 [Example 7, ((R)-3-(4-Fluorophenyl)pyrrolidin-1-yl)(4-((R)-2-hydroxy-3-(2H-tetrazol-2-yl)propoxy)phenyl)methanone]
pIC50 [1]: > 7.00
pIC50 [2]: ≥ 7.30

SMILES: N[C@@H](COc1ccc(C(=O)N2CC[C@H](c3ccc(Cl)cc3)C2)cc1)Cn1cnnn1 [Example 47, (4-((R)-2-amino-3-(1H-tetrazol-1-yl)propoxy)phenyl)((R)-3-(4-chlorophenyl)pyrrolidin-1-yl)methanone]
pIC50 [1]: > 7.00
IC50 (Plasmodium falciparum, Erythrocyte, hydrochloride salt of the example, same assay, read-out: PfIC50 Media (uM), (HCl)): < 0.1 µM

SMILES: N[C@@H](COc1ccc(C(=O)N2CC[C@H](c3ccc(Cl)cc3)C2)cc1)Cn1ncnn1 [Example 48, (4-((R)-2-amino-3-(2H-tetrazol-2-yl)propoxy)phenyl)((R)-3-(4-chlorophenyl)pyrrolidin-1-yl)methanone]
pIC50 [1]: > 7.00
pIC50 [2]: ≥ 7.30

SMILES: O=C(c1ccc(OC[C@@H](F)Cn2ncnn2)cc1)N1CC[C@H](c2ccc(F)cc2)C1 [Example 12]
pIC50 [1]: > 7.00
pIC50 [2]: ≥ 7.30

SMILES: O=C(c1ccc(OC[C@H](O)Cn2cnnn2)cc1)N1CC[C@H](c2ccc(Cl)cc2)C1 [Example 28, ((R)-3-(4-chlorophenyl)pyrrolidin-1-yl)(4-((R)-2-hydroxy-3-(1H-tetrazol-1-yl)propoxy)phenyl)methanone]
pIC50 [1]: > 7.00

SMILES: O=C(c1ccc(OC[C@H](O)Cn2ncnn2)cc1F)N1CC[C@H](c2ccc(Cl)cc2)C1 [Example 34, ((R)-3-(4-chlorophenyl)pyrrolidin-1-yl) (2-fluoro-4-((R)-2-hydroxy-3-(2H-tetrazol-2-yl)propoxy)phenyl)methanone]
pIC50 [1]: > 7.00

SMILES: Cc1nnnn1C[C@@H](O)COc1ccc(C(=O)N2CC[C@H](c3ccc(F)cc3)C2)cc1 [Example 21, ((R)-3-(4-fluorophenyl)pyrrolidin-1-yl)(4-((R)-2-hydroxy-3-(5-methyl-1H-tetrazol-1-yl)propoxy)phenyl)methanone]
pIC50 [1]: 6.00 to 6.30

SMILES: O=C(c1ccc(OC[C@H](O)Cn2cncn2)cc1)N1CC[C@H](c2ccc(F)cc2)C1 [Example 15, ((R)-3-(4-fluorophenyl)pyrrolidin-1-yl)(4-((R)-2-hydroxy-3-(1H-1,2,4-triazol-1-yl)propoxy)phenyl)methanone]
pIC50 [1]: > 7.00
pIC50 [2]: ≥ 7.30

SMILES: O=C(c1ccc(OC[C@H](O)Cn2nccn2)cc1)N1CC[C@H](c2ccc(F)cc2)C1 [Example 16, ((R)-3-(4-fluorophenyl)pyrrolidin-1-yl)(4-((R)-2-hydroxy-3-(2H-1,2,3-triazol-2-yl)propoxy)phenyl)methanone]
pIC50 [1]: > 7.00
pIC50 [2]: ≥ 7.30

SMILES: Cn1cc(CC(O)COc2ccc(C(=O)N3CC[C@H](c4ccc(F)cc4)C3)cc2)cn1 (mixture of isomers) [Example 37, ((R)-3-(4-Fluorophenyl)pyrrolidin-1-yl)(4-(2-hydroxy-3-(1-methyl-1H-pyrazol-4-yl)propoxy)phenyl)methanone]
pIC50 [1]: 5.30 to 6.00

SMILES: Cn1nnnc1C[C@@H](O)COc1ccc(C(=O)N2CC[C@H](c3ccc(F)cc3)C2)cc1 [Example 24, ((R)-3-(4-fluorophenyl)pyrrolidin-1-yl)(4-((R)-2-hydroxy-3-(1-methyl-1H-tetrazol-5-yl)propoxy)phenyl)methanone]
pIC50 [1]: 6.30 to 7.00

SMILES: O=C(c1ccc(OC[C@H](O)Cn2cnnn2)cc1)N1CC[C@H](c2ccc(F)cc2)C1 [Example 5, ((R)-3-(4-Fluorophenyl)pyrrolidin-1-yl)(4-((R)-2-hydroxy-3-(1H-tetrazol-1-yl)propoxy)phenyl)methanone]
pIC50 [1]: > 7.00
pIC50 [2]: ≥ 7.30

Results, then the compound that gave them:

pIC50 [1]: > 7.00
pIC50 [2]: ≥ 7.30
SMILES: O=C(c1ccc(OC[C@H](O)Cn2ncnn2)cc1)N1CCC(c2ccccc2F)C1 (single isomer, unassigned) [Example 40a]

pIC50 [1]: 5.30 to 6.00
SMILES: CC(O)(COc1ccc(C(=O)N2CC[C@H](c3ccc(F)cc3)C2)cc1)Cn1cnnn1 (single isomer, unassigned) [Example 10a]

pIC50 [3]: 5.30 to 6.00
SMILES: N#Cc1ccc(C2CCN(C(=O)c3ccc(OC[C@H](O)Cn4ncnn4)cc3)C2)cc1 (single isomer, unassigned) [Example 43b]

pIC50 [3]: > 7.00
SMILES: COc1ccc(C2CCN(C(=O)c3ccc(OC[C@H](O)Cn4ncnn4)cc3)C2)cc1 (single isomer, unassigned) [Example 44a]

pIC50 [1]: > 7.00
pIC50 [2]: ≥ 7.30
SMILES: O=C(c1ccc(OC[C@H](O)Cn2ncnn2)cc1)N1CCC(c2ccc(F)cc2F)C1 (single isomer, unassigned) [Example 42a]

pIC50 [1]: 6.30 to 7.00
SMILES: CC(O)(COc1ccc(C(=O)N2CC[C@H](c3ccc(F)cc3)C2)cc1)Cn1ncnn1 (single isomer, unassigned) [Example 9a]

pIC50 [3]: > 7.00
SMILES: CC(COc1ccc(C(=O)N2CC[C@H](c3ccc(F)cc3)C2)cc1)Cn1cnnn1 (single isomer, unassigned) [Example 1b]

pIC50 [1]: 6.30 to 7.00
SMILES: O=C(c1ccc(OC[C@H](O)Cn2ncnn2)cc1)N1CCC(c2cccc(F)c2)C1 (single isomer, unassigned) [Example 41b]

pIC50 [3]: 6.30 to 7.00
SMILES: CC(O)(COc1ccc(C(=O)N2CC[C@H](c3ccc(F)cc3)C2)cc1)Cn1ncnn1 (stereo partly drawn) [Example 9b, ((R)-3-(4-Fluorophenyl)pyrrolidin-1-yl)(4-(2-hydroxy-2-methyl-3-(2H-tetrazol-2-yl)propoxy)phenyl)methanone]

pIC50 [1]: > 7.00
pIC50 [2]: ≥ 7.30
SMILES: O=C(c1ccc(OCC(O)Cc2cscn2)cc1)N1CC[C@H](c2ccc(F)cc2)C1 (single isomer, unassigned) [Example 35a]
